Experiment [1] has as its system Legumain (Sus scrofa). The experiment in a line: Inhibitory activity against legumain.
For experiment [2], the target named is Cathepsin B (Homo sapiens) (UniProt P07858). The experiment in a line: Inhibitory activity against Cathepsin B.
Experiment [3] has as its target T1, Papain (Carica papaya) (UniProt P00784).
T1 sequence (whole entry): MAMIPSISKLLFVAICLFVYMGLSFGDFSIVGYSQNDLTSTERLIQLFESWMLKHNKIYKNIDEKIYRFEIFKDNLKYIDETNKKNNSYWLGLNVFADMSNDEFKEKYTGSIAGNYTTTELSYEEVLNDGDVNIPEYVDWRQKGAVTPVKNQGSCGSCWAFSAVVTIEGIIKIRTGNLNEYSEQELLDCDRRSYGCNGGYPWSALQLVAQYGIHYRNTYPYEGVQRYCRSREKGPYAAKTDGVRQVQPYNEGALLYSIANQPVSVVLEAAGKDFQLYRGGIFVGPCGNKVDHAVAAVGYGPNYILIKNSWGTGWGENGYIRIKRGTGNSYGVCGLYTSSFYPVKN
The experiment in a line: Inhibitory activity against papain.

Experiment [4] addresses T2, Caspase-6 (Homo sapiens) (UniProt P55212).
T2 sequence (whole entry): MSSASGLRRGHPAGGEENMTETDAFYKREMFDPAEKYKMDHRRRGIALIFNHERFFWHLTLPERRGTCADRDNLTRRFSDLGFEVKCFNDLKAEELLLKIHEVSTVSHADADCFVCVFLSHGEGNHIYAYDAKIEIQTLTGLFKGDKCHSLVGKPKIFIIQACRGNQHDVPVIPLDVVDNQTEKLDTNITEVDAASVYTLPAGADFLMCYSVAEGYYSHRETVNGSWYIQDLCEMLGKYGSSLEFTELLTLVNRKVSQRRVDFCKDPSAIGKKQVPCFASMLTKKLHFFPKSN
The experiment in a line: Inhibitory activity against Caspase-6.

The target in experiment [5] is T3, Caspase-1 (Homo sapiens) (UniProt P29466).
T3 sequence (whole entry): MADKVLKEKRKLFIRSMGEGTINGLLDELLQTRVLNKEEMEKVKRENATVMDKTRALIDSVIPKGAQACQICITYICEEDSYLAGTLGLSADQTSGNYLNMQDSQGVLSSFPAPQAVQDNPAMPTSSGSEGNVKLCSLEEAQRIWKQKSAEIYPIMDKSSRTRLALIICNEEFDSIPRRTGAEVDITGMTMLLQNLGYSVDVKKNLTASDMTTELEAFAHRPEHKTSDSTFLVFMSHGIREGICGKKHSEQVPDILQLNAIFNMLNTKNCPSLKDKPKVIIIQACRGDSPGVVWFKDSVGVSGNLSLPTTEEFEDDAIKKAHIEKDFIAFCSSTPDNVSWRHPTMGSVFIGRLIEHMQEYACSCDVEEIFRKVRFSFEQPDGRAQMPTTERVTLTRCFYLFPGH
The experiment in a line: Inhibitory activity against Caspase-1.

Experiment [6] has as its target T4, Caspase-3 (Homo sapiens) (UniProt P42574).
T4 sequence (whole entry): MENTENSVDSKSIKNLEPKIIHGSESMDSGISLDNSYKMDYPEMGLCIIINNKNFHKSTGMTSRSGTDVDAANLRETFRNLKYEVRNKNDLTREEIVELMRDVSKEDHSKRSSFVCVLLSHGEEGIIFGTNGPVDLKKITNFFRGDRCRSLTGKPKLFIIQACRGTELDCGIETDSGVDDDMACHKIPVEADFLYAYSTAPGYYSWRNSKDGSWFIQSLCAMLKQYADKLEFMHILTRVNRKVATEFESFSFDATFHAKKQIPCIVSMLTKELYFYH
The experiment in a line: Inhibitory activity against Caspase-3.

Experiment [7] concerns the target Caspase-8 (Homo sapiens) (UniProt Q14790). The experiment in a line: Inhibitory activity against Caspase-8.
The subject of experiment [8] is Legumain (Sus scrofa). The experiment in a line: Inhibitory activity against legumain; No inhibition.
For experiment [9], the target named is T1, Papain (Carica papaya). The experiment in a line: Inhibitory activity against papain; No inhibition.
The target of experiment [10] is Cathepsin B (Homo sapiens) (UniProt P07858). The experiment in a line: Inhibitory activity against Cathepsin B; No inhibition.

SMILES strings stand for the structures. Active and inactive are the calls of the source. The rule behind the calls is not given here.

K obs / 1 and NI data for four compounds are collected here from ChEMBL document CHEMBL1135610, “Aza-peptide epoxides: a new class of inhibitors selective for clan CD cysteine proteases” (J Med Chem, 2002).

Chain of Caspase-8 (Homo sapiens) (Q14790 217-374 limits assumed): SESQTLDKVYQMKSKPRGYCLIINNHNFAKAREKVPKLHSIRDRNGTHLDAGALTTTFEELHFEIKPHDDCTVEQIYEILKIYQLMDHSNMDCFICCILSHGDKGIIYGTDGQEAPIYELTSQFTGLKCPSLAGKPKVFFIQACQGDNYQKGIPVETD
Chain of Caspase-8 (Homo sapiens) (Q14790 385-479 limits assumed): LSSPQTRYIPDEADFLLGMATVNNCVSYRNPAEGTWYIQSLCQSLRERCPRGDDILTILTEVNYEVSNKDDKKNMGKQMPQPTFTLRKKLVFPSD

For the compound `CC(C)[C@H](NC(=O)CCc1ccccc1)C(=O)N[C@@H](C)C(=O)NN(CC(=O)O)C(=O)C1OC1C(=O)OCc1ccccc1` (stereo not given in full), the k obs / 1 in [1] is 21 M⁻¹ s⁻¹; in experiment [2] it was below 10 M⁻¹ s⁻¹; in experiment [3] it was below 10 M⁻¹ s⁻¹; in experiment [4], 52 M⁻¹ s⁻¹; in experiment [5], 36200 M⁻¹ s⁻¹; in experiment [6], 58 M⁻¹ s⁻¹. In experiment [7], this compound registered a k obs / 1 of 63 M⁻¹ s⁻¹.

In the case of `CCOC(=O)C1OC1C(=O)N(CC(C)C)NC(=O)[C@@H](CC(C)C)NC(=O)[C@@H](CC(C)C)NC(=O)Cc1ccccc1` (stereo in doubt; 20), the NI result in experiment [8] and in [10] was “inactive” throughout. Moreover, in experiment [9], the k obs / 1 was found to be 35 M⁻¹ s⁻¹.

Take `CC(C)[C@H](NC(=O)CCc1ccccc1)C(=O)N[C@@H](C)C(=O)NN(CC(=O)O)C(=O)C1OC1CCc1ccccc1` (stereo not given in full): the NI entry in [8], in experiment [9] and in experiment [10] was “inactive” each time. The k obs / 1 in experiment [4] was below 10 M⁻¹ s⁻¹; in experiment [5] it was 6130 M⁻¹ s⁻¹; in experiment [6], below 10 M⁻¹ s⁻¹; in [7] it was below 10 M⁻¹ s⁻¹.

`CCOC(=O)C1OC1C(=O)N(CC(N)=O)NC(=O)[C@@H](C)NC(=O)[C@@H](C)NC(=O)Cc1ccccc1` (stereo in doubt; 17): the NI result in [9] and in experiment [10] was “inactive” each time. Further, in [1], the k obs / 1 worked out at 142 M⁻¹ s⁻¹.
